Test results taken from article PMC7116137 (Molecular pharmacology, 2020).

Tests used:
[1] = molecular target: T1, wild-type A1R (Homo sapiens, UniProt P30542); test: [35S]GTPγS binding to membranes of HEK293 cells; format: biochemical; conditions: agonist-stimulated, curve fit; wt A1R
T1 sequence (P30542 1-326): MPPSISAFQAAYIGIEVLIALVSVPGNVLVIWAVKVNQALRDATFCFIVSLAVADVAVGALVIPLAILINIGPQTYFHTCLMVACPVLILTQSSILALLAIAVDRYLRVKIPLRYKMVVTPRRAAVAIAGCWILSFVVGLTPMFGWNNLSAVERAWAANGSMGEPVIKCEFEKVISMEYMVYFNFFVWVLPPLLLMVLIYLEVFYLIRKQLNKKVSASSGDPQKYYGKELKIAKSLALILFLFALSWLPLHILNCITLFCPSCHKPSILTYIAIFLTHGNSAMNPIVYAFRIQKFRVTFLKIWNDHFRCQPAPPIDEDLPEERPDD

[2] = molecular target: complex of dopamine D1-receptor and wild-type A1R (Homo sapiens, UniProt P21728+P30542); test: BRET between D1R-NLuc and eYFP-tagged A1-receptor in HEK293 cells; format: cell-based; conditions: incubation with ligand 10 μM, response estimated at saturation
Chain of complex of dopamine D1-receptor and wild-type A1R (P21728 whole entry, one chain of several): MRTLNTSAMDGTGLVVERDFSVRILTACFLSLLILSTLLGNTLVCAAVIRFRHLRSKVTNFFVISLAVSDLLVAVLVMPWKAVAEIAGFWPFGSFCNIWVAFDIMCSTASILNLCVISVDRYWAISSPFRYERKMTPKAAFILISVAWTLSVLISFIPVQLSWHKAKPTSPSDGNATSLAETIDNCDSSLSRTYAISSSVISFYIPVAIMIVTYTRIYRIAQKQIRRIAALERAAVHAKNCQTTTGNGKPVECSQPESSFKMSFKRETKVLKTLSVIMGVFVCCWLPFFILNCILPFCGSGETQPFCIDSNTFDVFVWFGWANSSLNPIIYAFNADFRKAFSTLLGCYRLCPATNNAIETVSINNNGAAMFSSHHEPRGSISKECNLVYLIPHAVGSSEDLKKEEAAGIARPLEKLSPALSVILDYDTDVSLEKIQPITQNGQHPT

## OC[C@H]1O[C@@H](n2cnc3c(NC4CCCC4)ncnc32)[C@H](O)[C@@H]1O [CPA, N6-cyclopentyladenosine]
[1]
  maximal [35S]GTPγS binding (95% confidence interval): 91.5 to 101.3 fmol/mg
[2]
  Maximum BRET signal: 218 ± 64 milli BRET
